Structures can show the parent of a compound that is named as a salt. Where two headings read alike, the source gives them in different places.
What was measured:
[1] = target: T1, SARS-CoV-2 PLpro (nsp3 1564–1878) (Severe acute respiratory syndrome coronavirus 2, UniProt P0DTD1); assay: biochemical; set-up: FRET-quenched peptide (Pro3) cleavage by PLpro, 10 min pre-incubation, slope over 20 min, normalised to no-compound control; details: low concentration screen, read-out: % of control remaining
[2] = target: T1, SARS-CoV-2 PLpro (nsp3 1564–1878); assay: biochemical; set-up: FRET-quenched peptide (Pro3) cleavage by PLpro, 10 min pre-incubation, slope over 20 min, normalised to no-compound control; details: high concentration screen, read-out: % of control remaining

COc1cc(OC)cc(-c2cc3cnc(N)nc3nc2NC(=O)NC(C)(C)C)c1 [PD-166866]
remaining activity at 1.25 µM ([1]; Well no.=5912): 96.4%
remaining activity at 3.75 µM ([2]; Well no.=5912): 96.7%

Cc1cc(Nc2ncc3cc(-c4c(Cl)cccc4Cl)c(=O)n(C)c3n2)ccc1F [PD-180970]
remaining activity at 1.25 µM ([1]; Well no.=5604): 100%
remaining activity at 3.75 µM ([2]; Well no.=5604): 96.4%

Cc1cc(Cn2c(=O)n(Cc3cnc(C)s3)c(=O)c3cc(S(=O)(=O)NC4(C)CC4)ccc32)n(C)n1 [PDD 00017273]
remaining activity at 1.25 µM ([1]; Well no.=8182): 105%
remaining activity at 3.75 µM ([2]; Well no.=8182): 98.5%

COc1cc2nccc(Oc3ccc(NC(=S)NC(=O)c4ccccc4C)cc3)c2cc1OC [PDGF RTK Inhibitor]
remaining activity at 1.25 µM ([1]; Well no.=2509): 104%
remaining activity at 3.75 µM ([2]; Well no.=2509): 101%

COc1cc2ncnc(N3CCN(C(=O)Nc4ccc(Oc5ccccc5)cc4)CC3)c2cc1OC [PDGF Receptor Tyrosine Kinase Inhibitor III]
remaining activity at 1.25 µM ([1]; Well no.=2505): 104%
remaining activity at 3.75 µM ([2]; Well no.=2505): 106%

CCCC(=O)Oc1ccc2[nH]c(C(=O)c3cc4ccccc4[nH]3)cc2c1 [PDGF Receptor Tyrosine Kinase Inhibitor II]
remaining activity at 1.25 µM ([1]; Well no.=2503): 101%
remaining activity at 3.75 µM ([2]; Well no.=2503): 99.2%

CCN(CC)Cc1ccc(C(=O)N(CCc2ccccc2OC)[C@@H]2CCNC2)cc1 [PF429242 (dihydrochloride)]
remaining activity at 1.25 µM ([1]; Well no.=6996): 102%
remaining activity at 3.75 µM ([2]; Well no.=6996): 97.5%

CN(c1ccccc1CNc1nc(Nc2ccc3c(c2)CC(=O)N3)ncc1C(F)(F)F)S(C)(=O)=O [PF431396]
remaining activity at 1.25 µM ([1]; Well no.=3033): 99.3%
remaining activity at 3.75 µM ([2]; Well no.=3033): 100%

OCCn1cc(-c2cnc3nnn(Cc4ccc5ncccc5c4)c3n2)cn1 [PF04217903]
remaining activity at 1.25 µM ([1]; Well no.=2937): 99.1%
remaining activity at 3.75 µM ([2]; Well no.=2937): 98.4%

CC(C)C[C@H]1C(=O)O[C@H](Cc2ccccc2)C(=O)N(C)[C@@H](CC(C)C)C(=O)O[C@H](C)C(=O)N(C)[C@@H](CC(C)C)C(=O)O[C@H](Cc2ccccc2)C(=O)N(C)[C@@H](CC(C)C)C(=O)O[C@H](C)C(=O)N1C [PF 1022A]
remaining activity at 1.25 µM ([1]; Well no.=7942): 101%
remaining activity at 3.75 µM ([2]; Well no.=7942): 114%

CS(=O)(=O)c1cccc(CNc2nc(Nc3ccc4c(c3)CCC(=O)N4)ncc2C(F)(F)F)c1 [PF 573228]
remaining activity at 1.25 µM ([1]; Well no.=4712): 96.1%
remaining activity at 3.75 µM ([2]; Well no.=4712): 101%

O=C(Nc1cccnc1)N1CCC(Cc2cccc(Oc3ccc(C(F)(F)F)cn3)c2)CC1 [PF-3845]
remaining activity at 1.25 µM ([1]; Well no.=4643): 96.6%
remaining activity at 3.75 µM ([2]; Well no.=4643): 90.4%

O=C(CCN1CCN(C(=O)OCc2cc(Cl)cc(Cl)c2)CC1)c1ccc2[nH]c(=O)oc2c1 [PF-8380]
remaining activity at 1.25 µM ([1]; Well no.=7798): 104%
remaining activity at 3.75 µM ([2]; Well no.=7798): 98.3%

Cn1cc(-c2[nH]c3cc(NC(=O)[C@H](N)C4CCCCC4)cc4c3c2C=NNC4=O)cn1 [PF-477736]
remaining activity at 1.25 µM ([1]; Well no.=4836): 99.5%
remaining activity at 3.75 µM ([2]; Well no.=4836): 101%

CC(F)(F)CN1CCOc2c(nn(-c3ccccc3Cl)c2-c2ccc(Cl)cc2)C1=O [PF-514273]
remaining activity at 1.25 µM ([1]; Well no.=5700): 97.7%
remaining activity at 3.75 µM ([2]; Well no.=5700): 96.2%

CN(c1ncccc1CNc1nc(Nc2ccc3c(c2)CC(=O)N3)ncc1C(F)(F)F)S(C)(=O)=O [PF-562271]
remaining activity at 1.25 µM ([1]; Well no.=2699): 97.1%
remaining activity at 3.75 µM ([2]; Well no.=2699): 100%

Cn1cc(-c2ccncc2)c(-c2ccc(OCc3ccc4ccccc4n3)cc2)n1 [PF-2545920]
remaining activity at 1.25 µM ([1]; Well no.=8150): 101%
remaining activity at 3.75 µM ([2]; Well no.=8150): 95.7%

COCc1nnc(N2CC(Oc3ccc(F)cc3Cl)C2)n1-c1ccc(OC)nc1 [PF-3274167]
remaining activity at 1.25 µM ([1]; Well no.=7285): 99.6%
remaining activity at 3.75 µM ([2]; Well no.=7285): 97.3%

Cc1cn2cc(C(=O)N(C)CCO)cc(N[C@@H]3CCOc4cccc(C)c43)c2n1 [PF-03716556]
remaining activity at 1.25 µM ([1]; Well no.=6006): 97.5%
remaining activity at 3.75 µM ([2]; Well no.=6006): 96%

CC(=O)NCC(=O)N1[C@@H]2CC[C@H]1c1ccc(Nc3ncc(C(F)(F)F)c(NC4CCC4)n3)cc12 [PF-03814735]
remaining activity at 1.25 µM ([1]; Well no.=4693): 102%
remaining activity at 3.75 µM ([2]; Well no.=4693): 105%

N#Cc1ccc(N2N=C3c4ccc(C(=O)O)cc4CC[C@@H]3[C@@H]2C2CCCC2)cc1Cl [PF-03882845]
remaining activity at 1.25 µM ([1]; Well no.=6063): 96.4%
remaining activity at 3.75 µM ([2]; Well no.=6063): 94.4%

From article PMC8286840, “Identifying SARS-CoV-2 antiviral compounds by screening for small molecule inhibitors of Nsp3 papain-like protease” (Biochemical Journal, 2021)
